Measurements published in patent US20260136597A1, “PHARMACEUTICAL COMPOSITION FOR PREVENTING OR TREATING A PERIODONTAL DISEASE OR DISLOCATED TRAUMATIC TOOTH” (HYSENSBIO Co., Ltd., priority 2020, published 2026).

Assays:
PERIOSTIN = assay: Real-time PCR, periostin gene expression in human periodontal ligament cells; assay type: cell-based; details: hPDL cells, average of three experiments
From the text: Periostin is a protein first discovered in a periodontal ligament and periosteum of a bone, and periostin is expressed in the periodontal ligament and mesenchymal of the developing tooth and is known to be involved in cell adhesion. According to several recent studies, periostin is an important regulator of periodontium formation, promotes collagen fiber production and migration of fibroblast and osteoblast, and it is known to play a pivotal role in the regeneration of periodontal ligament and alveolar bone after periodontal surgery to treat periodontal disease. Therefore, the effect of a peptide of Example 1 on the expression of periostin which is a marker gene for a periodontal ligament differentiation, and the type 3 collagen fiber gene (COL3) was confirmed.

CAP = details: hPDL cells; real-time PCR; average of three experiments
Procedure: Human periodontal ligament cells (hPDL cells) were isolated from periodontal ligament tissues from the wisdom teeth of 10 adults (18-22 years old) at Seoul National University Dental Hospital. Specifically, all experiments were performed with the consent of the patient after obtaining approval from the Hospital's Institutional Review Board, a periodontal ligament tissue attached to the root of a wisdom tooth was isolated and cut into double-sided pieces, placed in a 60 mm dish, and covered with a cover slip, and then cultured in Dulbecco's […] Eagle's Medium.
Total RNA from human periodontal ligament cells was isolated using a TRIzol reagent. cDNA was synthesized using 2 μg of total RNA, 1 μl of reverse transcriptase, and 0.5 μg of oligo (dT). cDNA of synthesized human periodontal ligament cells was used for a real-time polymerase chain reaction using primers shown in Table 2 below. A real-time polymerase chain reaction was performed in ABI PRISM 7500 sequence detection system (Applied Biosystems) using SYBR GREEN PCR Master Mix (Takara, Japan). The real-time polymerase chain reaction was performed at 94° C., 1 min; 95° C., 15 sec-60° C., 34 sec was performed under the condition of repeating 40 cycles. Results were analyzed using a comparative cycle threshold (CT) method.
Bone sialoprotein (BSP) and dentin matrix protein 1 (DMP1) genes are used as markers for the differentiation of osteoblast and cementoblast and are known as important genes for the calcification of a bone and cementum. In addition, a CAP (cementum attachment protein) gene is expressed in differentiated cementoblast and is known as a gene involved in the cementum attachment of a periodontal ligament fiber bundle.

BSP = assay: Real-time PCR, BSP gene expression in human periodontal ligament cells; assay type: cell-based; details: hPDL cells, average of three experiments
Procedure: Human periodontal ligament cells (hPDL cells) were isolated from periodontal ligament tissues from the wisdom teeth of 10 adults (18-22 years old) at Seoul National University Dental Hospital. Specifically, all experiments were performed with the consent of the patient after obtaining approval from the Hospital's Institutional Review Board, a periodontal ligament tissue attached to the root of a wisdom tooth was isolated and cut into double-sided pieces, placed in a 60 mm dish, and covered with a cover slip, and then cultured in Dulbecco's degenerated Eagle's Medium.

[1] = tested on: three-wall periodontal defect; assay: Periodontium regeneration in periodontium damage animal model, histological evaluation; assay type: in vivo, beagle dogs; details: beagle dog, 3 months
Procedure: Four beagle dogs (12-16 kg; […]) were anesthetized by inhalation of Geloran, intravenously injected with Zoletil (5 mg/kg) and Xylazine (0.2-0.5 mg/kg), and then treated with Lidocaine (Lidocaine 2% with 1:80,000 epinephrine). The 4th premolar tooth and the 2nd molar tooth were extracted from the mandible of the beagle dog, and then the dog waited for healing for 3 months. After 3 months of healing, three-wall periodontal defect was induced on distal and mesial surfaces of a 1st molar tooth. Then, a periodontal damage of 4×4×4 mm was formed with the buccal and distal bones remaining around the tooth root, the root alveolar bone is securely removed, tooth root planing was performed using a curette, and then an incisor groove was formed using a ½ round bur. Next, an experimental group was transplanted with a collagen sponge (a peptide solution obtained by dissolving a peptide in physiological saline at a concentration of 1 μg/μl was prepared, 50 μl of a peptide solution was added to the EP tube, and then was soaked for 5 minutes to prepare the collagen sponge) including a 50 μl of peptide (SEQ ID NO: 16 of group 2) prepared in Example 1 at a defect region, After the defect, only a negative control (NC) without any treatment and a collagen sponge (prepared by soaking a collagen sponge in 50 μl of physiological saline for 5 minutes) was placed on the inner bone wall of a bone defect and a transplanted negative control (NC+Plug) was sacrificed 3 months later, and histological evaluation was performed. After 3 months, a beagle dog was sacrificed by administering an excessive amount (90-120 mg/kg) of pentobarbital. A tooth of the beagle dog was extracted, fixed with 10% formalin, and then calcium was removed by adding 5% formic acid, molded, and embedded in paraffin, to obtain a tissue section with a thickness of 5 μm. The obtained tissue section was stained with hematoxylin and eosin or collagen stained (Masson's Trichrome Staining) to confirm periodontal ligament regeneration and then analyzed using by an optical microscope equipped with a digital camera (LEICA ICC50 camera, Germany). After extraction of a 4th premolar tooth and a 2nd molar tooth from the mandibles of 4 beagle dogs, they waited for 3 months to heal, and After 3 months of healing, the 3-mural periodontal defect was induced in distal and mesial surfaces of a 1st molar tooth. Then, periodontium damage of 4×4×4 mm was formed with the buccal and distal bones remaining around the tooth root, the root alveolar bone is securely removed, tooth root planing was performed using a curette, and then an incisor groove was formed. Next, the experimental group transplanted a collagen sponge containing 50 μg of the peptide (SEQ ID NO: 16) of Example 1 to the defect region, and after the defect, a negative control (NC) without any treatment and control (NC+Plug) transplanted by placing only a collagen sponge on the inner bone wall of the bone defect was sacrificed 3 months later for histological evaluation.

[2] = collagen sponge with 50 μg peptide, Masson's trichrome stain, FIG. 6
[3] = collagen sponge with 50 μg peptide, hematoxylin/eosin, FIG. 5

Sequence | PERIOSTIN gene expression, relative mRNA expression level compared to the control (Average) (PERIOSTIN) | CAP gene expression, relative mRNA expression level compared to the control (Average) (CAP) | BSP gene expression, relative mRNA expression level compared to the control (Average) (BSP) | further results
KYKQKKKNYK [SEQ ID NO 5] | 2.67 | 2.67 | 2.67 | 
KYKQKKKSYK [SEQ ID NO 13] | 2.525 | 2.525 | 2.525 | 
KYKQKKRNYK [SEQ ID NO 7, Group 1 peptide, 8th amino acid asparagine (N)] | 2.329 | 2.451 | 2.215 | 
KYKQKKRSYK [SEQ ID NO 15] | 2.620 | 2.620 | 2.620 | 
KYKQKRKNYK [SEQ ID NO 6] | 2.705 | 2.705 | 2.705 | 
KYKQKRKSYK [SEQ ID NO 14] | 2.836 | 2.836 | 2.836 | 
KYKQKRRNYK [SEQ ID NO 8] | 2.021 | 2.021 | 2.021 | 
KYKQKRRSYK [SEQ ID NO 16, Group 2 peptide, 8th amino acid serine (S)] | 2.403 | 2.467 | 2.606 | Alveolar bone regeneration ([1]; collagen sponge with 50 μg peptide at defect, hematoxylin/eosin, FIG. 4): alveolar bone was regenerated in most of the damage periodontium; Incorporation of new periodontal ligament fiber bundle into alveolar bone and cementum [1, 2]: A new periodontal ligament fiber bundle was vertically incorporated in the newly formed alveolar bone and cementum; New cementum-like tissue formation [1, 2]: new cementum-like tissue was observed along a tooth root surface; New periodontal ligament-like tissue formation [1, 2]: new periodontal ligament-like tissue formation was also observed; Incorporation of new periodontal ligament into alveolar bone and cementum [1, 3]: New periodontal ligament was incorporated in the newly formed alveolar bone and cementum; New cementum-like tissue formation [1, 3]: new cementum-like tissue was observed along a tooth root surface; New periodontal ligament-like tissue formation [1, 3]: new periodontal ligament-like tissue formation was also observed
KYKQRKKNYK [SEQ ID NO 1] | 2.092 | 2.092 | 2.092 | 
KYKQRKKSYK [SEQ ID NO 9] | 2.211 | 2.211 | 2.211 | 
KYKQRKRNYK [SEQ ID NO 2] | 2.361 | 2.361 | 2.361 | 
KYKQRKRSYK [SEQ ID NO 10] | 2.811 | 2.811 | 2.811 | 
KYKQRRKNYK [SEQ ID NO 3] | 2.572 | 2.572 | 2.572 | 
KYKQRRKSYK [SEQ ID NO 11] | 2.362 | 2.362 | 2.362 | 
KYKQRRRNYK [SEQ ID NO 4] | 2.702 | 2.702 | 2.702 | 
KYKQRRRSYK [SEQ ID NO 12] | 2.211 | 2.211 | 2.211 | 
